This experiment relates to MTT (mouse pheochromocytoma). Put plainly: IC50 of cell viability (ATP content). Conditions: (24 or 48 h). The method in brief:
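Each well of a white 1536-well plate received 5 µl of MTT mouse pheochromocytoma cells at 200,000 cells/ml in DMEM containing 5% FBS and 1% horse serum. After overnight culture at 37°C, 5% CO2, cells were exposed for 24 or 48 hrs to 23 nl of library compound in DMSO, pinned at 8 final concentrations from 0.5 nM to 46 µM. CellTiter-Glo luminescence was read after 15 minutes, and IC50 was obtained from a four-parameter logistic fit of signals normalised to positive-control and DMSO wells.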

Counter-ions that a name gives are not always drawn.

For the molecule `CCOC1=C2O[C@H]3[C@@H](O)\C=C/[C@H]4[C@H]5CC(=C2[C@@]34CCN5C)C=C1` [ETHYLMORPHINE HYDROCHLORIDE], the “IC50 of cell viability” value was over 46 µM.
The result for `CCC(C(=O)NC(N)=O)c1ccccc1` (stereo not drawn) [ETHYLPHENACEMIDE] reads over 46 µM; that for `C#C[C@]1(OC(C)=O)CC[C@H]2[C@@H]3CCC4=C[C@@H](OC(C)=O)CC[C@@H]4[C@H]3CC[C@@]21C` [ETHYNODIOL DIACETATE], over 46 µM; that for `CC(O)(P(=O)(O)O)P(=O)(O)O` [ETIDRONATE DISODIUM], over 46 µM.
Turning to `CCc1cc2c(s1)-n1c(C)nnc1CN=C2c1ccccc1Cl` [ETIZOLAM], the “IC50 of cell viability” value is over 46 µM.
Consider `CC[C@]12CC(=C)[C@H]3[C@@H](CCC/4=C/C(=O)CC[C@H]34)[C@@H]1CC[C@@]2(O)C#C` [ETONOGESTREL], for which the “IC50 of cell viability” value is over 46 µM.
`Cc1ccc(-c2ncc(Cl)cc2-c2ccc(S(C)(=O)=O)cc2)cn1` [ETORICOXIB]: the “IC50 of cell viability” value is over 46 µM.
To `CCOC(=O)/C=C(C)/C=C/C=C(C)/C=C/c1c(C)cc(OC)c(C)c1C` [ETRETINATE] belongs over 46 µM; to `CCC(N)Cc1c[nH]c2ccccc12` (stereo not drawn) [ETRYPTAMINUM], over 46 µM; to `CO[C@H]1C[C@@H]2CC[C@@H](C)[C@@](O)(O2)C(=O)C(=O)N2CCCC[C@H]2C(=O)O[C@H]([C@H](C)C[C@@H]2CC[C@@H](OCCO)[C@H](OC)C2)CC(=O)[C@H](C)C=C(C)[C@@H](O)[C@@H](OC)C(=O)[C@H](C)C[C@H](C)/C=C/C=C/C=C1C` [EVEROLIMUS], over 46 µM.
The result for `CCCCCCOc1ccccc1C(N)=O` [EXALAMIDE] reads over 46 µM; that for `C[C@]12CCC3C(CC(=C)C\4=C\C(=O)\C=C/[C@@]34C)C1CCC2=O` (stereo partly drawn) [EXEMESTANE], over 46 µM.
The result for `O=C1C(CCC(O)c2ccc(F)cc2)C(c2ccc(O)cc2)N1c1ccc(F)cc1` (stereo not drawn) [EZETIMIBE] reads over 46 µM; that for `O=c1c2ccccc2[se]n1-c1ccccc1` [Ebselen], over 46 µM.
Turning to `CC[C@@]12CCCN3CCc4c(n(c5ccccc45)C(=O)C1)[C@H]32` [Eburnamonine (-)], the “IC50 of cell viability” value is over 46 µM.
To `CC[N+](C)(C)c1cccc(O)c1` [Edrophonium chloride] belongs over 46 µM.
To `CCOC(=O)COc1ccc2c(=O)cc(-c3ccccc3)oc2c1` [Efloxate] belongs over 46 µM; to `CC1=C(C(=O)OCCN(Cc2ccccc2)c2ccccc2)C(c2cccc([N+](=O)[O-])c2)C(P2(=O)OCC(C)(C)CO2)=C(C)N1` (stereo not drawn) [Efonidipine], over 46 µM; to `OC(CN1CCC(Cc2ccc(F)cc2)CC1)c1ccc(Cl)cc1` (stereo not drawn) [Eliprodil], over 46 µM.
To `CC(NC(CCc1ccccc1)C(=O)O)C(=O)N1CCCC1C(=O)O` (stereo not drawn) [Enalapril acid] belongs over 46 µM.
As for `CCOC(=O)[C@H](CCc1ccccc1)N[C@@H](C)C(=O)N1CCC[C@H]1C(=O)O` [Enalaprila], the “IC50 of cell viability” value is over 46 µM.
To `COc1ccc(C(=O)Nc2ccccc2CCC2CCCCN2C)cc1` (stereo not drawn) [Encainide hydrochloride] belongs over 46 µM.
To `CCN(CC)CCOc1ccc(/C(=C(/Cl)c2ccccc2)c2ccccc2)cc1` [Enclomifene] belongs over 46 µM; to `CCN1\C=C(\C(O)=O)C(=O)C2=C1N=C(N3CCNCC3)C(=C2)F` [Enoxacin], over 46 µM; to `CSC1=CC=C(C=C1)C(=O)\C2=C(/C)NC(=O)N2` [Enoximone], over 46 µM.
As to `CCN(CC)C(=O)/C(C#N)=C/c1cc(O)c(O)c([N+](=O)[O-])c1` [Entacapone], the “IC50 of cell viability” value is over 46 µM.
The result for `CN1C=C(C2=CC=CC=C12)C3=C(/C(=O)NC\3=O)C4=CN(C5CCN(CC6=NC=CC=C6)CC5)C7=C4C=CC=C7` [Enzastaurin] reads over 46 µM; that for `CC(/C=C1\SC(=S)N(CC(=O)O)C1=O)=C\c1ccccc1` [Epalrestat], over 46 µM; that for `C[C@]12CC[C@@H]3c4ccc(O)cc4CC[C@H]3[C@@H]1C[C@H](O)C2O` (stereo partly drawn) [Epiestriol], over 46 µM.
As for `COc1cc(C)nc(-n2nc(C)cc2OC)n1` [Epirizole], the “IC50 of cell viability” value was over 46 µM.
To `C[C@@]12CC[C@H]3[C@@H](CC[C@@H]4C[C@H]5S[C@H]5C[C@]43C)[C@H]1CC[C@H]2O` [Epitiostanol] belongs over 46 µM; to `COC(=O)[C@@H]1CC2=CC(=O)CC[C@]2(C)[C@@]23O[C@@H]2C[C@@]2(C)[C@@H](CC[C@@]24CCC(=O)O4)[C@H]13` [Eplerenone], over 46 µM; to `CCC(C)C1OC2(C=CC1C)CC1CC(CC=C(C)C(OC3CC(OC)C(OC4CC(OC)C(NC(C)=O)C(C)O4)C(C)O3)C(C)C=CC=C3COC4C(O)C(C)=CC(C(=O)O1)C34O)O2` (stereo not drawn) [Eprinomectin B1a], over 46 µM.
To `CC(C)(C)NC(=O)[C@H]1CC[C@H]2[C@@H]3CC=C4C=C(C(=O)O)CC[C@@]4(C)[C@H]3CC[C@]12C` [Epristeride] belongs over 46 µM.
With `O=C(NCCCN1CCOCC1)c1ccc(Cl)cc1` [Eprobemida], the “IC50 of cell viability” value was over 46 µM.
To `CCCCc1ncc(/C=C(\Cc2cccs2)C(=O)O)n1Cc1ccc(C(=O)O)cc1` [Eprosartan mesylate] belongs over 46 µM; to `COc1cc2[nH]c(C)c(CCN3CCN(c4ccccc4)CC3)c2cc1OC` [Equipertine hydrochloride], over 46 µM.
Regarding `O=C(O)CSCC(=O)NC1CCSC1=O` (stereo not drawn) [Erdosteine], the “IC50 of cell viability” value was over 46 µM.
To `CN1C[C@@H](\C=C\2[C@H]1CC3=C[NH]C4=C3C2=CC=C4)C(=O)N[C@]5(C)O[C@@]6(O)[C@@H]7CCCN7C(=O)[C@H](CC8=CC=CC=C8)N6C5=O.CN9C[C@@H](\C=C\%10[C@H]9CC%11=C[NH]C%12=C%11C%10=CC=C%12)C(=O)N[C@]%13(C)O[C@@]%14(O)[C@@H]%15CCCN%15C(=O)[C@H](CC%16=CC=CC=C%16)N%14C%13=O.O[C@H]([C@@H](O)C([O-])=O)C(O)=O` [Ergotamine D-tartrate] belongs over 46 µM; to `C#Cc1cccc(Nc2ncnc3cc(OCCOC)c(OCCOC)cc23)c1` [Erlotinib], over 46 µM; to `CCOC(=O)CCC(=O)OC1C(OC2C(C)C(OC3CC(C)(OC)C(O)C(C)O3)C(C)C(=O)OC(CC)C(C)(O)C(O)C(C)C(=O)C(C)CC2(C)O)OC(C)CC1N(C)C` (stereo not drawn) [Erythromycin ethyl succinate], over 46 µM.
The result for `O=C1OC2(c3ccccc31)c1cc(I)c(O)c(I)c1Oc1c2cc(I)c(O)c1I` [Erythrosin B] reads over 46 µM; that for `O=C(CN1CCNCC1)NC1CCCCC1` [Esaprazola], over 46 µM; that for `OC[C@@H]1O[C@@H](OC2=CC\3=C(OC(=O)\C=C3)C=C2O)[C@H](O)[C@H](O)[C@@H]1O` [Esculin Hydrate], over 46 µM.
In the case of `COC(=O)CCc1ccc(OCC(O)CNC(C)C)cc1` (stereo not drawn) [Esmolol hydrochloride], the “IC50 of cell viability” value was over 46 µM.
To `CCCCCCC(=O)O[C@@H]1CC[C@H]2[C@@H]3CCc4cc(O)ccc4[C@H]3CC[C@]12C` [Estradiol enanthate] belongs over 46 µM; to `C[C@]12CC[C@H]3c4ccc(O)cc4CC[C@@H]3[C@H]1CC[C@@H]2OP(=O)(O)O` [Estradiol phosphate], over 46 µM.
To `C[C@@]12CC[C@@H]3c4ccc(O[S+](=O)([O-])O)cc4CC[C@H]3[C@H]1CCC2=O` [Estropipate] belongs over 46 µM; to `CN1CCN(C(=O)O[C@H]2c3nccnc3C(=O)N2c2ccc(Cl)cn2)CC1` [Eszopiclone], over 46 µM.
The result for `CCOC(=O)c1cnc2c(cnn2CC)c1NN=C(C)C.Cl` [Etazolate hydrochloride] reads over 46 µM; that for `CCN(CC)[S+](=O)([O-])c1ccc(C(=O)O)cc1` [Etebenecid], over 46 µM.
In the case of `C=C(CC)C(=O)c1ccc(OCC(=O)O)c(Cl)c1Cl` [Ethacrynic acid], the “IC50 of cell viability” value was over 46 µM.
Turning to `CC[C@H](CO)NCCN[C@@H](CC)CO` [Ethambutol dihydrochloride], the “IC50 of cell viability” value was over 46 µM.
The result for `CCN(CC)C(=O)c1ccc(O)c(OC)c1` [Ethamivan] reads over 46 µM.
To `CCNCC.O=[S+]([O-])(O)c1cc(O)ccc1O` [Ethamsylate] belongs over 46 µM; to `NCCO` [Ethanolamine], over 46 µM; to `CC(=O)c1ccc(OCC(=O)N2CCCCC2)cc1` [Ethanone, 2-(4-acetylphenoxy)-1-(1-piperidinyl)-], over 46 µM.
To `CCC1Nc2cc(Cl)c([S+](N)(=O)[O-])cc2[S+](=O)([O-])N1` (stereo not drawn) [Ethiazide] belongs over 46 µM; to `CC[n+]1c(-c2ccccc2)c2cc(N)ccc2c2ccc(N)cc21` [Ethidium bromide], over 46 µM.
Regarding `CCc1cc(C(N)=S)ccn1` [Ethionamide], the “IC50 of cell viability” value is over 46 µM.
In the case of `CCOC(=O)C1(c2ccccc2)CCCN(C)CC1` (stereo not drawn) [Ethoheptazine hydrochloride], the “IC50 of cell viability” value was over 46 µM.
The result for `CCCSP(=O)(OCC)SCCC` [Ethoprop] reads over 46 µM; that for `CCN(CC)[C@@H](C)CN1c2ccccc2Sc2ccccc21` [Ethopropazine hydrochloride], over 46 µM.
